Legend:
in vivo = conditions: cynomolgus monkey, sc
Description: Cynomolgus monkeys were used to evaluate the pharmacokinetics in monkeys of the acylated oxyntomodulin peptide analogs according to the present invention.

GLP-1 receptor = GLP-1 receptor (Homo sapiens, UniProt P43220); assay: Human GLP-1 receptor activation assay (CRE-luciferase); format: cell-based; parameters: host or cells: CHO-K1; conditions: for Emax: CHO-K1, 6 h, read-out: GLP-1 receptor Maximum activation (% vs GLP-1); for EC50: CHO-K1 cells transiently transfected, luciferase, 6 hours, 0.1% BSA
Experimental: (§1) Then, the resulting increased luciferase activity was evaluated as a measurement of the effect on each receptor activation.
(§2) For positive control, endogenous ligand GLP-1 or glucagon was used for respective evaluation. The above-mentioned acylated oxyntomodulin peptide analogs of Comparative Example 8-12 were synthesized and used as comparative examples.
(§3) After 3 hours of transfection, medium was exchanged to Alpha Minimal Essential Medium (α-MEM) comprising 10% fetal bovine serum (FBS). Next day, the medium was exchanged to α-MEM comprising the acylated oxyntomodulin peptide analog of the present invention and 0.1% bovine serum albumin (BSA). After 6 hours, dual luciferase assay reagent (Promega) was added in the same amount as the medium in which the cells were submerged, and firefly luciferase and Renilla luciferase activities were successively measured. Firefly luciferase activity values were corrected against Renilla luciferase activity to yield transfection efficiency.

glucagon receptor = glucagon receptor (Homo sapiens, UniProt P47871); assay: Human glucagon receptor activation assay (CRE-luciferase); format: cell-based; parameters: host or cells: CHO-K1; conditions: CHO-K1 cells transiently transfected; for Emax: 6 h, relative to glucagon, read-out: GCG receptor Maximum activation (% vs GCG); for EC50: 6 hours, 0.1% BSA, read-out: GCG receptor EC50
Experimental: as §1, §2, §3

glucagon receptor, sequence (P47871 26-477): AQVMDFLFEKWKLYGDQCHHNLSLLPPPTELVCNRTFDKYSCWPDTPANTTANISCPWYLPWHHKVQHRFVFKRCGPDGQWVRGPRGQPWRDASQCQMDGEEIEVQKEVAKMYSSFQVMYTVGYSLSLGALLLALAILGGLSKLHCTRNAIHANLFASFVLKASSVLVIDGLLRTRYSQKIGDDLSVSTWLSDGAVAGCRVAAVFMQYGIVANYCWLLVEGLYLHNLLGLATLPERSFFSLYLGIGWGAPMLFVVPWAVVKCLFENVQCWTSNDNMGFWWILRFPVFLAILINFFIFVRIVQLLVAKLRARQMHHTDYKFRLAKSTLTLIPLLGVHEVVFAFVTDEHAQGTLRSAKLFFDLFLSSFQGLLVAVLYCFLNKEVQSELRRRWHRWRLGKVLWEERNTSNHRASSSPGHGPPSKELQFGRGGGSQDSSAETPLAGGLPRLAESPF
GLP-1 receptor, sequence (P43220 24-463): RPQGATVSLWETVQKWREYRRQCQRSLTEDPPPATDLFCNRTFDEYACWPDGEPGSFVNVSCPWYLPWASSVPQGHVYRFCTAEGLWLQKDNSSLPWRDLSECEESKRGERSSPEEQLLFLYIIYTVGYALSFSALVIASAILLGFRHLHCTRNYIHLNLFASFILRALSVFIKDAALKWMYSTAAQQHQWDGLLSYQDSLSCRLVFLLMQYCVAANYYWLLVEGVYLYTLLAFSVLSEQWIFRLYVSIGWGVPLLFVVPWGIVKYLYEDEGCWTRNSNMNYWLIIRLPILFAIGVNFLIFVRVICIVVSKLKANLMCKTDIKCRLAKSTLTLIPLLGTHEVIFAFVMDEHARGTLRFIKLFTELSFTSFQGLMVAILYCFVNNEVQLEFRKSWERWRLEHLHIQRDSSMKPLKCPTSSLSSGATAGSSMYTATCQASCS

Row | SMILES | half-life (in vivo; Monkey PK (S.C. half-life)) [min] | half-life (in vivo; monkey PK half-life) [min] | Emax (GLP-1 receptor) [%] | EC50 (GLP-1 receptor) [nM] | Emax (glucagon receptor) [%] | EC50 (glucagon receptor) [nM]
1 | CCCCCCCCCCCCCCCCCC(=O)N[C@@H](CCC(=O)NCCOCCOCC(=O)NCCOCCOCC(=O)NCCCC[C@H](NC(=O)[C@H](CC(=O)O)NC(=O)[C@H](CO)NC(=O)[C@@H](NC(=O)[C@H](Cc1ccccc1)NC(=O)[C@@H](NC(=O)CNC(=O)[C@H](CCC(N)=O)NC(=O)C(C)(C)NC(=O)[C@@H](N)Cc1c[nH]cn1)[C@@H](C)O)[C@@H](C)O)C(=O)N[C@@H](CO)C(=O)N[C@@H](CCCCN)C(=O)N[C@@H](Cc1ccc(O)cc1)C(=O)N[C@@H](CC(C)C)C(=O)N[C@@H](CC(=O)O)C(=O)NC(C)(C)C(=O)N[C@@H](CCCNC(=N)N)C(=O)N[C@@H](CCCNC(=N)N)C(=O)N[C@@H](C)C(=O)N[C@@H](CCC(N)=O)C(=O)N[C@@H](CC(=O)O)C(=O)N[C@@H](Cc1ccccc1)C(=O)N[C@H](C(=O)N[C@@H](CCC(N)=O)C(=O)N[C@@H](Cc1c[nH]c2ccccc12)C(=O)N[C@@H](CC(C)C)C(=O)N[C@@H](CCSC)C(=O)N[C@@H](CC(N)=O)C(=O)N[C@H](C(=O)N[C@@H](CCCCN)C(=O)N[C@@H](CCC(=O)O)C(=O)N[C@@H](Cc1ccc(O)cc1)C(=O)N[C@@H](CCC(=O)O)C(=O)N[C@@H](CCCCNC(=O)[C@@H](N)CCCCNC(=O)CCCCCCCCCCCCCCCCC(=O)O)C(=O)N[C@@H](CCC(=O)O)C(=O)N[C@@H](Cc1ccc(O)cc1)C(=O)N[C@@H](CCC(=O)O)C(=O)O)[C@@H](C)O)C(C)C)C(=O)O [Compound 4] | 1080 to 1440 | 720 to 1440 | 87.9 | 0.1 to 1 | 95.4 | ≥ 1
2 | CCCCCCCCCCCCCCCCCC(=O)N[C@@H](CCC(=O)NCCOCCOCC(=O)NCCOCCOCC(=O)NCCCC[C@H](NC(=O)[C@H](CC(=O)O)NC(=O)[C@H](CO)NC(=O)[C@@H](NC(=O)[C@H](Cc1ccccc1)NC(=O)[C@@H](NC(=O)CNC(=O)[C@H](CCC(N)=O)NC(=O)C(C)(C)NC(=O)[C@@H](N)Cc1c[nH]cn1)[C@@H](C)O)[C@@H](C)O)C(=O)N[C@@H](CO)C(=O)N[C@@H](CCCCN)C(=O)N[C@@H](Cc1ccc(O)cc1)C(=O)N[C@@H](CC(C)C)C(=O)N[C@@H](CC(=O)O)C(=O)NC(C)(C)C(=O)N[C@@H](CCCNC(=N)N)C(=O)N[C@@H](CCCNC(=N)N)C(=O)N[C@@H](C)C(=O)N[C@@H](CCC(N)=O)C(=O)N[C@@H](CC(=O)O)C(=O)N[C@@H](Cc1ccccc1)C(=O)N[C@H](C(=O)N[C@@H](CCC(N)=O)C(=O)N[C@@H](Cc1c[nH]c2ccccc12)C(=O)N[C@@H](CC(C)C)C(=O)N[C@@H](CCSC)C(=O)N[C@@H](CC(N)=O)C(=O)N[C@H](C(=O)N[C@@H](CCCCN)C(=O)N[C@@H](CCC(=O)O)C(=O)N[C@@H](Cc1ccc(O)cc1)C(=O)N[C@@H](CCC(=O)O)C(=O)N[C@@H](CCCCNC(=O)COCCOCCNC(=O)COCCOCCNC(=O)COCCOCCNC(=O)CC[C@H](NC(=O)CCCCCCCCCCCCCCCCC(=O)O)C(=O)O)C(=O)N[C@@H](CCC(=O)O)C(=O)N[C@@H](Cc1ccc(O)cc1)C(=O)N[C@@H](CCC(=O)O)C(=O)O)[C@@H](C)O)C(C)C)C(=O)O [Compound 5] | 1080 to 1440 | 720 to 1440 | 93.6 | 0.1 to 1 | 99.4 | 0.1 to 1
3 | CCCCCCCCCCCCCCCCCC(=O)N[C@@H](CCC(=O)NCCOCCOCC(=O)NCCOCCOCC(=O)NCCCC[C@H](NC(=O)[C@H](CC(=O)O)NC(=O)[C@H](CO)NC(=O)[C@@H](NC(=O)[C@H](Cc1ccccc1)NC(=O)[C@@H](NC(=O)CNC(=O)[C@H](CCC(N)=O)NC(=O)C(C)(C)NC(=O)[C@@H](N)Cc1c[nH]cn1)[C@@H](C)O)[C@@H](C)O)C(=O)N[C@@H](CO)C(=O)N[C@@H](CCCCN)C(=O)N[C@@H](Cc1ccc(O)cc1)C(=O)N[C@@H](CC(C)C)C(=O)N[C@@H](CC(=O)O)C(=O)NC(C)(C)C(=O)N[C@@H](CCCNC(=N)N)C(=O)N[C@@H](CCCNC(=N)N)C(=O)N[C@@H](C)C(=O)N[C@@H](CCC(N)=O)C(=O)N[C@@H](CC(=O)O)C(=O)N[C@@H](Cc1ccccc1)C(=O)N[C@H](C(=O)N[C@@H](CCC(N)=O)C(=O)N[C@@H](Cc1c[nH]c2ccccc12)C(=O)N[C@@H](CC(C)C)C(=O)N[C@@H](CCSC)C(=O)N[C@@H](CC(N)=O)C(=O)N[C@H](C(=O)N[C@@H](CCCCN)C(=O)N[C@@H](CCC(=O)O)C(=O)N[C@@H](Cc1ccc(O)cc1)C(=O)N[C@@H](CCC(=O)O)C(=O)N[C@@H](CCCCNC(=O)[C@@H](N)CCCCNC(=O)COCCOCCNC(=O)COCCOCCNC(=O)COCCOCCNC(=O)CC[C@H](NC(=O)CCCCCCCCCCCCCCCCC(=O)O)C(=O)O)C(=O)N[C@@H](CCC(=O)O)C(=O)N[C@@H](Cc1ccc(O)cc1)C(=O)N[C@@H](CCC(=O)O)C(=O)O)[C@@H](C)O)C(C)C)C(=O)O [Compound 6] | 720 to 1080 | 720 to 1440 | 83.8 | 0.1 to 1 | 89.1 | 0.1 to 1
4 | CCCCCCCCCCCCCCCCCC(=O)N[C@@H](CCC(=O)NCCOCCOCC(=O)NCCOCCOCC(=O)NCCCC[C@H](NC(=O)[C@H](CC(=O)O)NC(=O)[C@H](CO)NC(=O)[C@@H](NC(=O)[C@H](Cc1ccccc1)NC(=O)[C@@H](NC(=O)CNC(=O)[C@H](CCC(N)=O)NC(=O)C(C)(C)NC(=O)[C@@H](N)Cc1c[nH]cn1)[C@@H](C)O)[C@@H](C)O)C(=O)N[C@@H](CO)C(=O)N[C@@H](CCCCN)C(=O)N[C@@H](Cc1ccc(O)cc1)C(=O)N[C@@H](CC(C)C)C(=O)N[C@@H](CC(=O)O)C(=O)NC(C)(C)C(=O)N[C@@H](CCCNC(=N)N)C(=O)N[C@@H](CCCNC(=N)N)C(=O)N[C@@H](C)C(=O)N[C@@H](CCC(N)=O)C(=O)N[C@@H](CC(=O)O)C(=O)N[C@@H](Cc1ccccc1)C(=O)N[C@H](C(=O)N[C@@H](CCC(N)=O)C(=O)N[C@@H](Cc1c[nH]c2ccccc12)C(=O)N[C@@H](CC(C)C)C(=O)N[C@@H](CCSC)C(=O)N[C@@H](CC(N)=O)C(=O)N[C@H](C(=O)N[C@@H](CCCCN)C(=O)N[C@@H](CCC(=O)O)C(=O)N[C@@H](Cc1ccc(O)cc1)C(=O)N[C@@H](CCC(=O)O)C(=O)N[C@@H](CCCCNC(=O)CCCCCCCCCCCCCCC)C(=O)N[C@@H](CCC(=O)O)C(=O)N[C@@H](Cc1ccc(O)cc1)C(=O)N[C@@H](CCC(=O)O)C(=O)O)[C@@H](C)O)C(C)C)C(=O)O [Compound 9] | 360 to 720 | < 720 | 70.4 | 0.1 to 1 | 73.3 | 0.1 to 1
